Where a name gives a salt, the structure may show the parent alone. Some results are limits rather than exact numbers.

This passage reports Dmax and DC50 results from patent publication EP4759807A1, “PROTEOLYSIS TARGETING CHIMERA COMPOUND FOR DEGRADING IRAK4 AND USE THEREOF” (Shenzhen Zhongge Biological Technology Co., Ltd., priority 2023, dated 2025).

In assay [1] the target is T1, IRAK4 (Homo sapiens, UniProt Q9NWZ3).
T1 sequence (Q9NWZ3 1-460): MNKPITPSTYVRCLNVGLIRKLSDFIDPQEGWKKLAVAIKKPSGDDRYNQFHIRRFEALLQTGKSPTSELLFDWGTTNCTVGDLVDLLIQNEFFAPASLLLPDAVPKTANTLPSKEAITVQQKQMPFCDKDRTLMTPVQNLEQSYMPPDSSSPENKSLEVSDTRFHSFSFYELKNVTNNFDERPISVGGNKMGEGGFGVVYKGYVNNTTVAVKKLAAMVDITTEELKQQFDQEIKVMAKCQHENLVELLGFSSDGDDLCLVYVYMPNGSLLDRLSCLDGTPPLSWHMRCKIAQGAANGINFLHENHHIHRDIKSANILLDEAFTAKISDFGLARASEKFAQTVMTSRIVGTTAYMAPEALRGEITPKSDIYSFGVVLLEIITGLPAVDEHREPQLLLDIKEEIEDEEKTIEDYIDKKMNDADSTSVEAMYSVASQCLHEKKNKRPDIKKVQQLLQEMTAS
As to the kind of experiment: Hibit fluorescence detection of proteolysis (IRAK4-HiBiT in HEK293T cells). The assay is classed as cell-based. On the set-up: host or cells: HEK293T (ATCC). Conditions: for Dmax: HEK-293T; for DC50: IRAK4-HiBiT, HEK293T cells, 24 h. In short, it runs like this:
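Degradation read-out: luminescence from lytic HiBiT detection (15 min, room temperature) after 24 h compound exposure (37 °C, 5% CO2) of HEK293T cells transiently expressing IRAK4 fused to a HiBiT tag. Data fitted to a bell-shaped four-parameter model giving two EC50 values.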

For assay [2], the target named is T1, IRAK4. As to the kind of experiment: WB detection of proteolysis (Western Blot, THP-1 cells). The class given is cell-based. Conditions: Western Blot, THP-1 cells, 24 h; for DC50: read-out: DC50; for Dmax: read-out: Dmax. In short, it runs like this: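 IRAK4 level in RIPA lysates read by Western blot with Odyssey imaging; values from bell-shaped non-linear fit with two four-parameter sections (Plateau1, Plateau2, Dip, LogEC50_1/2, nH1/2).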
A general note: A western blot detects proteins with antibodies after separation by electrophoresis.

For `Cn1c(=O)n(C2CCC(=O)NC2=O)c2cccc(C3CCN(C[C@H]4CC[C@H](n5cc(-n6cc(-c7ccc8cc(C(N)=O)cnn78)nn6)c(C(F)F)n5)CC4)CC3)c21` (stereo partly drawn) [Example 84, 7-(1-(3-(difluoromethyl)-1-((1r,4r)-4-((4-(1-(2,6-dioxopiperidin-3-yl)-3-methyl-2-oxo-2,3-dihydro-1H-benzo[d]imidazol-4-yl)piperidin-1-yl)methyl)cyclohexyl)-1H-pyrazol-4-yl)-1H-1,2,3-triazol-4-yl)pyrrolo[1,2-b]pyridazine-3-carboxamide], in assay [1], the Dmax was more than 80% and the DC50 was less than 0.5 nM. In assay [2], the DC50 was less than 10 nM and the Dmax is less than 60%.
Consider `Cn1c(=O)n(C2CCC(=O)NC2=O)c2cccc(N3CCC4(CCN(C[C@H]5CC[C@H](n6cc(-n7cc(-c8cnn9ccc(N%10CCC(C)(O)CC%10)nc89)nn7)c(C(F)F)n6)CC5)C4)CC3)c21` (stereo partly drawn) [Compound 238], for which the Dmax in assay [1] is more than 80%; in assay [2] it was 60 to 70%. The DC50 in assay [1] (read-out: DC50) is less than 0.5 nM; in assay [2], 10 to 30 nM.
In assay [1], `Cn1c(=O)n(C2CCC(=O)NC2=O)c2cccc(N3CCC(N4CCN(C[C@H]5CC[C@H](n6cc(-n7cc(-c8cnn9ccc(NCCC(C)(C)O)nc89)nn7)c(C(F)F)n6)CC5)CC4)CC3)c21` (stereo partly drawn) [Example 125] showed a Dmax of more than 80% and a DC50 of less than 0.5 nM. Besides, in assay [2], the DC50 was less than 10 nM and the Dmax was more than 70%.
On the same counts, the results for `Cn1c(=O)n(C2CCC(=O)NC2=O)c2cccc(N3CCC4(CCN(C[C@H]5CC[C@H](n6cc(-n7cc(-n8ccc9cc(C(N)=O)cnc98)nn7)c(C(F)F)n6)CC5)CC4)CC3)c21` (stereo partly drawn) [Example 99] are more than 80%, less than 0.5 nM, 10 to 30 nM and less than 60%.
The like results for `Cn1c(=O)n(C2CCC(=O)NC2=O)c2cccc(N3CCN(C4CCN(C[C@H]5CC[C@H](n6cc(-n7cc(-c8cnn9ccc(N[C@@H]%10CCCC[C@@H]%10O)nc89)nn7)c(C(F)F)n6)CC5)CC4)CC3)c21` (stereo partly drawn) [Example 153] were, in that order, more than 80%, less than 0.5 nM, less than 10 nM and more than 70%.
Turning to `Cn1c(=O)n(C2CCC(=O)NC2=O)c2cccc(N3CCC4(CCN(C[C@H]5CC[C@H](n6cc(-n7cc(-c8cnn9ccc(N%10CCNCC%10)nc89)nn7)c(C(F)F)n6)CC5)C4)CC3)c21` (stereo partly drawn) [Example 128, 3-(4-(2-(((1r,4r)-4-(3-(difluoromethyl)-4-(4-(5-(piperazin-1-yl)pyrazolo[1,5-a]pyrimidin-3-yl)-1H-1,2,3-triazol-1-yl)-1H-pyrazol-1-yl)cyclohexyl)methyl)-2,8-diazaspiro[4.5]dec-8-yl)-3-methyl-2-oxo-2,3-dihydro-1H-benzo[d]imidazol-1-yl)piperidine-2,6-dione dihydrochloride], the Dmax was more than 80% in assay [1] and more than 70% in assay [2]. The DC50 in assay [1] is less than 0.5 nM; in assay [2] it was less than 10 nM.
The like results for `Cn1c(=O)n(C2CCC(=O)NC2=O)c2cccc(N3CCC4(CCN(C[C@H]5CC[C@H](n6cc(-n7cc(-c8cnn9ccc(N%10CCC[C@H](O)C%10)nc89)nn7)c(C(F)F)n6)CC5)C4)CC3)c21` (stereo partly drawn) [Example 145] were, in that order, more than 80%, more than 70%, less than 0.5 nM and less than 10 nM.
The like results for `Cn1c(=O)n(C2CCC(=O)NC2=O)c2cccc(N3CCC4(CCN(C[C@H]5CC[C@H](n6cc(-n7cc(-c8ccc9cc(C(N)=O)cnn89)nn7)c(C(F)F)n6)CC5)CC4)C3)c21` (stereo partly drawn) [Example 62, 7-(1-(3-(difluoromethyl)-1-((1r,4r)-4-((2-(1-(2,6-dioxopiperidin-3-yl)-3-methyl-2-oxo-2,3-dihydro-1H-benzo[d]imidazol-4-yl)-2,8-diazaspiro[4.5]dec-8-yl)methyl)cyclohexyl)-1H-pyrazol-4-yl)-1H-pyrazol-1,2,3-triazol-4yl)pyrrolo[1,2-b]pyridazine-3-carboxamide] were, in that order, more than 80%, more than 70%, less than 0.5 nM and less than 10 nM.
The like results for `Cn1c(=O)n(C2CCC(=O)NC2=O)c2cccc(N3CCC(N4CCN(C[C@H]5CC[C@H](n6cc(-n7cc(-c8cnn9ccc(N[C@@H]%10CCCC[C@@H]%10O)nc89)nn7)c(C(F)F)n6)CC5)CC4)CC3)c21` (stereo partly drawn) [Example 155] were, in that order, more than 80%, more than 70%, less than 0.5 nM and less than 10 nM.
Take `Cn1c(=O)n(C2CCC(=O)NC2=O)c2cccc(N3CCC4(CCN(C[C@H]5CC[C@H](n6cc(-n7cc(-c8ccc9cc(C(N)=O)cnn89)nn7)c(C(F)F)n6)CC5)C4)CC3)c21` (stereo partly drawn) [Example 37]: the Dmax in assay [1] was more than 80%; in assay [2] it was 60 to 70%. Besides, the DC50 in assay [1] was less than 0.5 nM; in assay [2], less than 10 nM.
On the same counts, the results for `Cn1c(=O)n(C2CCC(=O)NC2=O)c2cccc(N3CCC4(CCN(C[C@H]5CC[C@H](n6cc(-n7cc(-c8cnn9ccc(N%10CCC[C@H](N)C%10)nc89)nn7)c(C(F)F)n6)CC5)C4)CC3)c21` (stereo partly drawn) [Example 119] are more than 80%, more than 70%, 0.5 to 1 nM and 10 to 30 nM.
The like results for `Cn1c(=O)n(C2CCC(=O)NC2=O)c2cccc(N3CCC4(CCN(C[C@H]5CC[C@H](n6cc(-n7cc(-c8cnn9ccc(N[C@@H]%10CCCC[C@@H]%10O)nc89)nn7)c(C(F)F)n6)CC5)CC4)CC3)c21` (stereo partly drawn) [Example 151] were, in that order, more than 80%, more than 70%, less than 0.5 nM and less than 10 nM.
In assay [1], `Cn1c(=O)n(C2CCC(=O)NC2=O)c2cccc(N3CCN(C[C@H]4CC[C@H](n5cc(-n6cc(-c7cnn8ccc(N9CCC[C@@H](O)C9)nc78)nn6)c(C(F)F)n5)CC4)CC3)c21` (stereo partly drawn) [Example 243] came in with a Dmax of more than 80% and a DC50 of less than 0.5 nM. In addition, in assay [2], the DC50 was less than 10 nM and the Dmax was more than 70%.
On the same counts, the results for `Cn1c(=O)n(C2CCC(=O)NC2=O)c2cccc(N[C@H]3CC[C@H](N(C)C[C@H]4CC[C@H](n5cc(-n6cc(-c7cnn8ccc(N9CCC[C@H](N)C9)nc78)nn6)c(C(F)F)n5)CC4)CC3)c21` (stereo partly drawn) [Example 118] are more than 80%, less than 0.5 nM, 10 to 30 nM and more than 70%.
The like results for `C[C@H]1COCCN1c1ccn2ncc(-c3cn(-c4cn([C@H]5CC[C@H](CN6CCN(C7CCN(c8cccc9c8n(C)c(=O)n9C8CCC(=O)NC8=O)CC7)CC6)CC5)nc4C(F)F)nn3)c2n1` (stereo partly drawn) [Example 59] were, in that order, 70 to 80%, less than 0.5 nM, less than 10 nM and more than 70%.
With `Cn1c(=O)n(C2CCC(=O)NC2=O)c2cccc(N3CCC(N4CCN(C[C@H]5CC[C@H](n6cc(-n7cc(-n8ccc9cc(C(N)=O)cnc98)nn7)c(C(F)F)n6)CC5)CC4)CC3)c21` (stereo partly drawn) [Example 98, 1-(1-(3-(difluoromethyl)-1-((1r,4r)-4-((4-(1-(2-(2,6-dioxopiperidin-3-yl)-3-methyl-2-oxo-3,3-dihydro-1H-benzo[d]imidazol-4-yl)piperidin-4-yl)piperazin-1-yl)methyl)cyclohexyl)-1H-pyrazol-4-yl)-1H-1-1,2,3-triazole)-1H-pyrrolo[2,3-b]pyridine-5-carboxamide], in assay [1], the Dmax is more than 80% and the DC50 is less than 0.5 nM. In addition, in assay [2], the DC50 was less than 10 nM and the Dmax is more than 70%.
The like results for `Cn1c(=O)n(C2CCC(=O)NC2=O)c2cccc(N3CCC4(CCN(C[C@H]5CC[C@H](n6cc(-n7cc(-c8cnn9ccc(N[C@@H]%10CCCC[C@@H]%10O)nc89)nn7)c(C(F)F)n6)CC5)C4)CC3)c21` (stereo partly drawn) [Example 154] were, in that order, more than 80%, less than 0.5 nM, less than 10 nM and more than 70%.
In assay [1], `Cn1c(=O)n(C2CCC(=O)NC2=O)c2cccc(N3CCC4(CCN(C[C@H]5CC[C@H](n6cc(-n7cc(-c8cnn9ccc(N%10CCC(C)(O)CC%10)nc89)nn7)c(C(F)F)n6)CC5)CC4)C3)c21` (stereo partly drawn) [Example 123] had a Dmax of more than 80% and a DC50 of less than 0.5 nM. In addition, in assay [2], the DC50 was less than 10 nM and the Dmax is less than 60%.
